The values below come from PubChem BioAssay AID212 (DTP/NCI, 2004).

The test system of the experiment is BDF1 mice, colon carcinoma 38 sc, T/C %. The experiment is described as follows: NCI In Vivo Anticancer Drug Screen. Data for tumor model Colon Carcinoma 38 (subcutaneous) in B6D2F1 (BDF1) mice. The following applies: endpoint: median tumor weight (est.), higher = larger tumour. The protocol: The antitumor activity of compounds was measured in mice bearing transplantable tumors. Survival or tumor size were measured and the results are expressed as the measurement made in the treated group (T) divided by the measurement made in the vehicle treated control group (C). The tumor model used in this assay is Colon Carcinoma 38 (subcutaneous) in B6D2F1 (BDF1) mice

[1] abbreviates: dose: 50.0 mg/kg/injection, schedule: Q07DX002 (ip), vehicle: saline.
Setting [2] is: dose: 100.0 mg/kg/injection, schedule: Q07DX002 (ip), vehicle: saline.
Setting [3] is: dose: 200.0 mg/kg/injection, schedule: Q07DX002 (ip), vehicle: saline.
The mark [4] stands for this setting: dose: 400.0 mg/kg/injection, schedule: Q07DX002 (ip), vehicle: saline.
[5] abbreviates: dose: 25.0 mg/kg/injection, schedule: Q07DX002 (ip), vehicle: saline with Tween-80.
Where [6] appears, read: dose: 50.0 mg/kg/injection, schedule: Q07DX002 (ip), vehicle: saline with Tween-80.
The mark [7] stands for this setting: dose: 100.0 mg/kg/injection, schedule: Q07DX002 (ip), vehicle: saline with Tween-80.
Setting [8] is: dose: 12.5 mg/kg/injection, schedule: Q07DX002 (ip), vehicle: saline with Tween-80.
Setting [9] is: dose: 200.0 mg/kg/injection, schedule: Q07DX002 (ip), vehicle: saline with Tween-80.
Setting [10] is: dose: 400.0 mg/kg/injection, schedule: Q07DX002 (ip), vehicle: saline with Tween-80.
Where [11] appears, read: dose: 25.0 mg/kg/injection, schedule: Q07DX002 (ip), vehicle: suspension in saline.
Where [12] appears, read: dose: 50.0 mg/kg/injection, schedule: Q07DX002 (ip), vehicle: suspension in saline.
The mark [13] stands for this setting: dose: 100.0 mg/kg/injection, schedule: Q07DX002 (ip), vehicle: suspension in saline.

“And” between values parts separate entries of the source, which are not always exact repeats. Equal values may be shown once. Records with an inconclusive call do not appear.

As to `CONc1ccn(C2OC(CO)C(O)C2O)c(=O)n1` (stereo not drawn), the T/C was 92 % of control and 101 % of control under setting [1]; 113 % of control under setting [2]; 124 % of control under setting [3]; 91 % of control under setting [4].

As for `CCC1OC(OC)C=CC1=O` (stereo not drawn), the T/C under setting [5] is 92 % of control, the T/C under setting [6] is 73 % of control and the T/C under setting [7] is 73 % of control.

In the case of `O=Cc1ccc(C(Cl)(Cl)Cl)cc1`, the T/C runs as follows: under setting [8], 47 % of control; (dose: 12.5 mg/kg/injection, schedule: Q07DX002 (ip), vehicle: saline) 78 % of control; under setting [5], 74 % of control; (dose: 25.0 mg/kg/injection, schedule: Q07DX002 (ip), vehicle: saline) 79 % of control; under setting [1], 74 % of control; under setting [7], 93 % of control. Also, the T/C runs as follows: under setting [2], 88 % of control; under setting [9], 66 % of control; under setting [3], 67 % of control; under setting [4], 82 % of control.

For `CCN(CC)CCOC(=O)Cc1cccc2c(=O)cc(-c3ccc(Cl)cc3)oc12`, the T/C runs as follows: under setting [7], 48 % of control; under setting [9], 4 % of control.

In the case of `O=c1c(O)c(-c2cc(O)c(O)c(O)c2)oc2cc(O)cc(O)c12`, the T/C (dose: 6.25 mg/kg/injection, schedule: Q07DX002 (ip), vehicle: other) was 75 % of control; the T/C (dose: 12.5 mg/kg/injection, schedule: Q07DX002 (ip), vehicle: other) was 87 % of control; the T/C under setting [8] was 152 % of control and 172 % of control; the T/C (dose: 25.0 mg/kg/injection, schedule: Q07DX002 (ip), vehicle: other) was 73 % of control; the T/C under setting [5] was 113 % of control and 107 % of control; the T/C (dose: 50.0 mg/kg/injection, schedule: Q07DX002 (ip), vehicle: other) is 96 % of control. For the same molecule, the T/C was 120 % of control and 107 % of control under setting [6]; 65 % of control (dose: 100.0 mg/kg/injection, schedule: Q07DX002 (ip), vehicle: other); 161 % of control and 214 % of control under setting [7]; 98 % of control (dose: 200.0 mg/kg/injection, schedule: Q07DX002 (ip), vehicle: other); 187 % of control under setting [9]; 77 % of control (dose: 400.0 mg/kg/injection, schedule: Q07DX002 (ip), vehicle: other). Further, the T/C under setting [10] is 116 % of control and 100 % of control.

Regarding `CSCS(=O)C[C@H](CO)NC(=O)/C=C/c1c(C)[nH]c(=O)[nH]c1=O` (stereo partly drawn), the T/C by setting is: (dose: 0.25 mg/kg/injection, schedule: Q07DX002 (ip), vehicle: saline) 110 % of control and 86 % of control; (dose: 2.0 mg/kg/injection, schedule: Q07DX002 (ip), vehicle: saline) 105 % of control; (dose: 4.0 mg/kg/injection, schedule: Q07DX002 (ip), vehicle: saline) 62 % of control and 74 % of control.

On to `CCc1nc(N)nc(N)c1-c1ccc(Cl)c([N+](=O)[O-])c1`, for which the T/C reads like this: (dose: 3.12 mg/kg/injection, schedule: Q07DX002 (ip), vehicle: saline with Tween-80) 70 % of control; (dose: 6.25 mg/kg/injection, schedule: Q07DX002 (ip), vehicle: saline with Tween-80) 65 % of control and 77 % of control; under setting [8], 97 % of control and 103 % of control; under setting [6], 45 % of control and 62 % of control; under setting [7], 52 % of control.

For `O=C(O)C1CC1.[Ag]`, the T/C runs as follows: (dose: 6.25 mg/kg/injection, schedule: Q07DX002 (ip), vehicle: distilled water + Tween-80) 119 % of control; (dose: 6.25 mg/kg/injection, schedule: Q07DX002 (ip), vehicle: water) 108 % of control; (dose: 12.5 mg/kg/injection, schedule: Q07DX002 (ip), vehicle: water) 84 % of control; (dose: 25.0 mg/kg/injection, schedule: Q07DX002 (ip), vehicle: distilled water + Tween-80) 87 % of control.

`COc1cc(Cc2nccc3cc(OC)c(OC)cc23)c(C(C)=O)cc1OC`: the T/C runs as follows: (dose: 12.5 mg/kg/injection, schedule: Q07DX002 (ip), vehicle: suspension in saline) 166 % of control; under setting [11], 108 % of control; under setting [12], 110 % of control; under setting [13], 69 % of control.

For the molecule `C=C1C(C)C2C(Cc3ccccc3)NC(=O)C23C(OC(C)=O)/C=C/C(C)(O)CC(C)C/C=C/C3C1O` (stereo not drawn), the T/C was 86 % of control (dose: 0.75 mg/kg/injection, schedule: Q07DX002 (ip), vehicle: Klucel (hydroxypropylcellulose) (HPC)); 115 % of control (dose: 1.5 mg/kg/injection, schedule: Q07DX002 (ip), vehicle: Klucel (hydroxypropylcellulose) (HPC)); 77 % of control (dose: 3.0 mg/kg/injection, schedule: Q07DX002 (ip), vehicle: Klucel (hydroxypropylcellulose) (HPC)); 100 % of control (dose: 6.0 mg/kg/injection, schedule: Q07DX002 (ip), vehicle: Klucel (hydroxypropylcellulose) (HPC)); 95 % of control (dose: 12.0 mg/kg/injection, schedule: Q07DX002 (ip), vehicle: Klucel (hydroxypropylcellulose) (HPC)); 90 % of control (dose: 24.0 mg/kg/injection, schedule: Q07DX002 (ip), vehicle: Klucel (hydroxypropylcellulose) (HPC)).

As for `O=C1NC(O)c2ccccc2O1` (stereo not drawn), the T/C runs as follows: under setting [5], 93 % of control; under setting [11], 64 % of control; under setting [6], 90 % of control; under setting [12], 113 % of control and 93 % of control; under setting [7], 75 % of control; under setting [13], 60 % of control and 70 % of control. In addition, the T/C reads like this: under setting [9], 69 % of control; under setting [10], 82 % of control.

With `C=C(NC(=O)C(=C)NC(=O)c1csc(C2=NC3c4csc(n4)C4NC(=O)c5csc(n5)C(C(C)(O)C(C)O)NC(=O)C5CSC(=N5)/C(=C/C)NC(=O)C(C(C)O)NC(=O)c5csc(n5)C3(CC2)NC(=O)C(C)NC(=O)C(=C)NC(=O)C(C)NC(=O)C(C(C)CC)NC2C=Cc3c(C(C)O)cc(nc3C2O)C(=O)OC4C)n1)C(N)=O` (stereo not drawn), the T/C is, setting by setting: (dose: 12.5 mg/kg/injection, schedule: Q07DX002 (ip), vehicle: Klucel (hydroxypropylcellulose) (HPC)) 70 % of control; (dose: 50.0 mg/kg/injection, schedule: Q07DX002 (ip), vehicle: Klucel (hydroxypropylcellulose) (HPC)) 106 % of control; (dose: 100.0 mg/kg/injection, schedule: Q07DX002 (ip), vehicle: Klucel (hydroxypropylcellulose) (HPC)) 106 % of control; (dose: 200.0 mg/kg/injection, schedule: Q07DX002 (ip), vehicle: Klucel (hydroxypropylcellulose) (HPC)) 110 % of control; (dose: 400.0 mg/kg/injection, schedule: Q07DX002 (ip), vehicle: Klucel (hydroxypropylcellulose) (HPC)) 119 % of control; (dose: 400.0 mg/kg/injection, schedule: Q07DX003 (ip), vehicle: Klucel (hydroxypropylcellulose) (HPC)) 119 % of control.

For the molecule `CCN(CC)CCNc1ccc(CO)c2sc3ccccc3c(=O)c12`, the T/C is 120 % of control (dose: 6.25 mg/kg/injection, schedule: Q07DX003 (ip), vehicle: clinical formulation); 90 % of control (dose: 6.25 mg/kg/injection, schedule: Q07DX003 (ip), vehicle: water); 116 % of control (dose: 12.5 mg/kg/injection, schedule: Q07DX003 (ip), vehicle: clinical formulation); 103 % of control (dose: 12.5 mg/kg/injection, schedule: Q07DX003 (ip), vehicle: water); 77 % of control (dose: 25.0 mg/kg/injection, schedule: Q07DX003 (ip), vehicle: clinical formulation); 114 % of control (dose: 25.0 mg/kg/injection, schedule: Q07DX003 (ip), vehicle: water). Besides, the T/C was 63 % of control (dose: 50.0 mg/kg/injection, schedule: Q07DX003 (ip), vehicle: clinical formulation); 30 % of control (dose: 50.0 mg/kg/injection, schedule: Q07DX003 (ip), vehicle: water); 14 % of control (dose: 100.0 mg/kg/injection, schedule: Q07DX003 (ip), vehicle: clinical formulation); 11 % of control (dose: 100.0 mg/kg/injection, schedule: Q07DX003 (ip), vehicle: water).
